Measurements published in patent publication US10149852B2, “Use of sodium channel blockers for the treatment of neuropathic pain developing as a consequence of chemotherapy” (priority 2006, dated 2018).
Where “and” joins values, the source holds several entries; their conditions need not be identical. Equal entries are not always repeated. Entries after “also recorded” stand apart in the source; their conditions may differ.

Assays:
[1] = test system: paclitaxel-induced thermal hyperalgesia
[2] = test system: paclitaxel induced orofacial allodynia
[3] = test system: paclitaxel-induced cold allodynia
[4] = test system: paclitaxel induced paw allodynia
[5] = test system: paclitaxel induced paw hyperalgesia
[6] = test system: paclitaxel-induced mechanical allodynia
[7] = in vivo; cited from earlier work
[8] = test system: Chemotherapy Induced Neuropathic Pain (CINP); design: species or system Human Subjects; details: in vivo
[9] = test system: paclitaxel-induced painful peripheral neuropathy; design: species or system CD-1 mice; details: mouse, in vivo, sc
[10] = design: species or system Human Subjects; details: in vivo
[11] = paclitaxel 2 mg/kg i.p. once daily 5 days
[12] = paclitaxel 1 mg/kg i.p. days 1, 3, 5, 7, rats

CC(=O)O[C@H]1C(=O)[C@@]2(C)[C@H]([C@H](OC(=O)c3ccccc3)[C@]3(O)C[C@H](OC(=O)[C@H](O)[C@@H](NC(=O)c4ccccc4)c4ccccc4)C(C)=C1C3(C)C)[C@]1(OC(C)=O)CO[C@@H]1C[C@@H]2O [paclitaxel, Paclitaxel, reference compound]
time of maximal thermal hyperalgesia after the first injection [1, 11]: 7 days | paw withdrawal latency in the plantar test vs pre-treatment day ([1]; paclitaxel 2 mg/kg i.p. once daily 5 days, all post-treatment days): significantly reduced | animals that did not develop thermal hyperalgesia on day 7 ([1]; paclitaxel-treated mice): Around 9% | mechanical threshold (orofacial) vs vehicle-treated group [2, 12]: significantly reduced | animals with increased time licking/biting (paclitaxel-responder animals) [3, 11]: 67% | time of maximal cold allodynia after the first injection [3, 11]: 10 to 14 days | mechanical threshold (paw) vs vehicle-treated group [4, 12]: significantly reduced | thermal latency vs vehicle-treated group [5, 12]: significantly reduced | induction of mechanical allodynia (threshold force, Von Frey test) ([6]; paclitaxel 2 mg/kg i.p. during 5 days, day 10): induced mechanical allodynia | animals showing a reduction of the mechanical threshold ([6]; paclitaxel-treated mice): 96%

Octahydro-12-(Hydroxymethyl)-2-imino-5,9,7,10a-dimethano-10aH-[1,3]dioxocino[6,5-d]pyrimidine-4,7,10,11,12-pentol [TTX]
effect of a single dose on allodynia in the trigeminal territory ([2]; rat, in vivo, sc): partial but significant decrease | prevention of development of allodynia in the orofacial region ([2]; rat, in vivo, sc): able to prevent the development | effect on expression of paclitaxel-induced cold allodynia ([3]; mouse, in vivo): inhibited the expression | days with statistically significant difference vs paclitaxel+saline, duration of licking/biting ([3]; mouse, in vivo, sc): days 10 and 14 | days with statistically significant difference vs paclitaxel+saline, frequency of licking/biting ([3]; mouse, in vivo, sc): days 7, 10 and 14 | effect on development of paclitaxel-induced cold allodynia (two variables) ([3]; mouse, in vivo, sc): did not significantly affect | effect significantly different from saline, frequency of licking/biting ([3]; mouse, in vivo, sc): only in the animals treated with TTX 6 μg/kg | time after injection with effect significantly different from saline, duration of licking/biting ([3]; mouse, in vivo, sc): 1 h | safety profile of the doses [7]: acceptable safety profile | effect of a single dose on allodynia in the sciatic territory ([4]; rat, in vivo, sc): partial but significant decrease | prevention of development of allodynia in the paw ([4]; rat, in vivo, sc): able to prevent the development | effect of a single dose on paw hyperalgesia ([5]; rat, in vivo, sc): did not significantly reduce | prevention of development of hyperalgesia in the paw ([5]; rat, in vivo, sc): able to prevent the development | Responders, 30% reduction in average NPRS score from baseline to any 10 consecutive days: No, number of subjects [8]: 17 (68.0%) and 14 (58.3%) and 15 (60.0%) and 11 (42.3%) | Responders, 30% reduction in average NPRS score from baseline to any 10 consecutive days: No, percent [8]: 17 (68.0%) and 14 (58.3%) and 15 (60.0%) and 11 (42.3%) | Responders, 30% reduction in average NPRS score from baseline to any week: No, number of subjects [8]: 16 (64.0%) and 13 (54.2%) and 15 (60.0%) and 11 (42.3%) | Responders, 30% reduction in average NPRS score from baseline to any week: No, percent [8]: 16 (64.0%) and 13 (54.2%) and 15 (60.0%) and 11 (42.3%) | Responders, 30% reduction in average NPRS score from baseline to any week: Yes, number of subjects [8]: 9 (36.0%) and 11 (45.8%) and 10 (40.0%) and 15 (57.7%) | analgesic effects in the model of neuropathic pain [9]: clear analgesic effects | Nervous system disorders, number of subjects [10]: 13 and 16 and 17 and 20 | Number of Subjects with at least 1 AE [10]: 21 and 22 and 20 and 24 | Paresthesia, number of subjects [10]: 5 and 7 | grade 4 AEs [10]: no grade 4 AEs | number of grade 3 AEs [10]: four and seven | number of patients with serious adverse effects (SAEs) [10]: Three | number of subjects with grade 3 AE [10]: Four | relation of the SAEs to TTX [10]: two unrelated and one unlikely related | severity of most AEs [10]: grade 1 or 2; also recorded: mild or moderate | severity of nervous system AEs [10]: grade 1 or 2 save for one event of grade 3 paresthesia | Hypesthesia oral, number of subjects ([10]; po): 5 and 7 and 6 and 10 | Oral paresthesia (most common AE), number of patients of 125 ([10]; po): 37 | Oral paresthesia (most common AE), percent ([10]; po): 29.6% | dose relation of Oral Paresthesia ([10]; po): increasing trend in relation to increasing dose | oral hypesthesia, number of patients of 125 ([10]; po): 31 | oral hypesthesia, percent ([10]; po): 24.8%
